{
  "source": "patent US20050042256A1",
  "about": "“Lipid blends and food products containing oleic fatty acid and omega-6 fatty acids, designed to increase the intramyocellular lipid level” (priority 2001, published 2005)",
  "data": [
    {"system": "Human skeletal muscle cells", "assay": "IMCL (triacylglycerol) accumulation in muscle cells incubated with fatty acids", "format": "cell-based", "conditions": "0.5 mM FFA salt bound to albumin, DMEM + 25 mM glucose, 24 hrs at 37° C; FIGURE 1", "description": "Human skeletal muscle cells were used as a model to test the effect that different fatty acids (as precursors) may have on the extent of muscle triglyceride storage.\nPrimary cultures were initiated from a bank of satellite cells of muscle biopsies obtained from patients free of muscle disease. Aneural muscle cultures were established in a monolayer, then they were grown in a DMEM-M-199 medium, 3:1, supplemented with 10% fetal bovine serum, 10 μg/ml insulin, 2 mM glutamine, 25 ng/ml fibroblast growth factor, and 10 ng/ml epidermal growth factor. Immediately after myoblast fusion, cells were rinsed in Hank's balanced salt solution and a medium devoid of FGF, EGF, and glutamine was added. Muscle cultures were maintained in this medium for up to 4 weeks.\nCells were incubated with DMEM+glucose (25 mM)+0.5 mM FFA salt bound to albumin (in independent experiments for each FFA), for 24 hrs at 37° C. As examples for the fatty acids used in blend 1 (promoting IMCL storage), oleate (C18:1 cis), linoleate (C18:2 cis/cis), n-6 linoleate and n-3 linoleate.\nAs examples for the fatty acids used in blend 2 (inhibiting IMCL storage), octanoate (C8:0), palinitate (C16:0) and stearate (C18:0).\nAfter incubation, cell lipids were extracted according to the method of Bligh and Dyer (Can. J. Biochem Physiol 37: 911-917, 1959). To determine the IMCL content, extracts were prepared by scraping cell monolayers in a buffer consisting of 50 mM Tris, 100 mM KCl, 20 mM KF, 0.5 mM EDTA and 0.05% Lubrol PX, pH 7.9, and they were sonicated three times for 5 seconds. Homogenates were centrifuged at 11′000 g for 15 min and the resulting supernatants were collected. Total triacylglycerol (i.e. IMCL) was measured with a Cobas-Bio autoanalyzer with a GPO-Trinder kit, with triolein resuspended in the extraction buffer as a standard. The intramyocellular nature of the triglycerides was evidenced by histo-chemical staining with Sudan III in 70% ethanol.", "values": [
      {"smiles": "CCCCCCCC(=O)O", "note": "[octanoate, octanoate (C8:0)]", "accumulation / synthesis of IMCL (total triacylglycerol)": "no accumulation of IMCL"},
      {"smiles": "CCCCC/C=C\\C/C=C\\CCCCCCCC(=O)O", "note": "[linoleate, linoleate (C18:2 cis/cis)]", "accumulation / synthesis of IMCL (total triacylglycerol)": "notably higher synthesis"},
      {"smiles": "CCCCCCCCCCCCCCCCCC(=O)O", "note": "[stearate, stearate (C18:0)]", "accumulation / synthesis of IMCL (total triacylglycerol)": "moderate synthesis"},
      {"smiles": "CCCCCCCC/C=C\\CCCCCCCC(=O)O", "note": "[oleate, oleate (C18:1 cis)]", "accumulation / synthesis of IMCL (total triacylglycerol)": "notably higher synthesis"}
    ]}
  ]
}
